Columns and labels:
[1] = tested on: Cabbage Looper (Trichoplusia ni, TRIPNI); assay: Bioassay on Cabbage Looper (CL), 128-well diet tray assay; type: in vivo; conditions: 168 h, 50 μg/cm^2 of test molecule on artificial diet, second instar larvae, 25° C., five to seven days, average of eight wells, read-out: CL % Control (or Mortality) rating
Description: (§1) Certain molecules disclosed in this document were tested against BAW and CL using procedures described in the following examples. In the reporting of the results, the “BAW & CL Rating Table” was used (See Table Section).
Bioassays on CL were conducted using a 128-well diet tray assay. One to five second instar CL larvae were placed in each well (3 mL) of the diet tray that had been previously filled with 1 mL of artificial diet to which 50 μg/cm^2 of the test molecule (dissolved in 50 μL of 90:10 acetone-water mixture) had been applied (to each of eight wells) and then allowed to dry. Trays were covered with a clear self-adhesive cover, vented to allow gas exchange, and held at 25° C., 14:10 light-dark for five to seven days. Percent mortality was recorded for the larvae in each well; activity in the eight wells was then averaged. The results are indicated in the table entitled “Table ABC: Biological Results” (See Table Section).

[2] = tested on: Beet Armyworm (Spodoptera exigua, LAPHEG); assay: Bioassay on Beet Armyworm (BAW), 128-well diet tray assay; type: in vivo; conditions: 168 h, 50 μg/cm^2 of test molecule on artificial diet, second instar larvae, 25° C., five to seven days, average of eight wells, read-out: BAW % Control (or Mortality) rating
Description: as §1
Bioassays on BAW were conducted using a 128-well diet tray assay. One to five second instar BAW larvae were placed in each well (3 mL) of the diet tray that had been previously filled with 1 mL of artificial diet to which 50 μg/cm^2 of the test molecule (dissolved in 50 μL of 90:10 acetone-water mixture) had been applied (to each of eight wells) and then allowed to dry. Trays were covered with a clear self-adhesive cover, vented to allow gas exchange, and held at 25° C., 14:10 light-dark for five to seven days. Percent mortality was recorded for the larvae in each well; activity in the eight wells was then averaged. The results are indicated in the table entitled “Table ABC: Biological Results” (See Table Section).

SMILES | mortality at 50 µg/cm2 [1] [%] | mortality at 50 µg/cm2 [2] [%]
O=C(/N=C1\SCC(=O)N1c1cccc2c1CCCC2)NCOc1ccc(-c2ncn(-c3ccc(OC(F)(F)F)cc3)n2)cc1 [Compound F27, (Z)-1-(4-Oxo-3-(5,6,7,8-tetrahydronaphthalen-1-yl)thiazolidin-2-ylidene)-3-((4-(1-(4-(trifluoromethoxy)phenyl)-1H-1,2,4-triazol-3-yl)phenoxy)methyl)urea] | 50 to 100 | 50 to 100
COc1ccc(N2C(=O)CS/C2=N\C(=O)NCOc2ccc(-c3ncn(-c4ccc(OC(F)(F)F)cc4)n3)cc2)c(C)c1 [Compound F32, (Z)-1-(3-(4-Methoxy-2-methylphenyl)-4-oxothiazolidin-2-ylidene)-3-((4-(1-(4-(trifluoromethoxy)phenyl)-1H-1,2,4-triazol-3-yl)phenoxy)methyl)urea] | 50 to 100 | 50 to 100
CCc1cccc(C)c1N1C(=O)CS/C1=N\C(=O)NCOc1ccc(-c2ncn(-c3ccc(OC(F)(F)F)cc3)n2)cc1 [Compound F30, (Z)-1-(3-(2-Ethyl-6-methylphenyl)-4-oxothiazolidin-2-ylidene)-3-((4-(1-(4-(trifluoromethoxy)phenyl)-1H-1,2,4-triazol-3-yl)phenoxy)methyl)urea] | 50 to 100 | 50 to 100
CSC(C)c1ccccc1N1C(=O)CS/C1=N\C(=O)NCOc1ccc(-c2ncn(-c3ccc(OC(F)(F)F)cc3)n2)cc1 (stereo not drawn) [Compound F31, (Z)-1-(3-(2-(1-(methylthio)ethyl)phenyl)-4-oxothiazolidin-2-ylidene)-3-((4-(1-(4-(trifluoromethoxy)phenyl)-1H-1,2,4-triazol-3-yl)phenoxy)methyl)urea] | 50 to 100 | 50 to 100
COc1ccc(CC(F)(F)F)c(N2C(=O)CS/C2=N\C(=O)NCOc2ccc(-c3ncn(-c4ccc(OC(F)(F)F)cc4)n3)cc2)c1 [Compound F2, (Z)-1-(3-(5-Methoxy-2-(2,2,2-trifluoroethyl)phenyl)-4-oxothiazolidin-2-ylidene)-3-((4-(1-(4-(trifluoromethoxy)phenyl)-1H-1,2,4-triazol-3-yl)phenoxy)methyl)urea] | 50 to 100 | 50 to 100
Cc1ccc(OCC(F)(F)F)c(N2C(=O)CS/C2=N\C(=O)NCOc2ccc(-c3ncn(-c4ccc(OC(F)(F)F)cc4)n3)cc2)c1 [Compound F23, (Z)-1-(3-(5-Methyl-2-(2,2,2-trifluoroethoxy)phenyl)-4-oxothiazolidin-2-ylidene)-3-((4-(1-(4-(trifluoromethoxy)phenyl)-1H-1,2,4-triazol-3-yl)phenoxy)methyl)urea] | 50 to 100 | 50 to 100
Cc1ccc(F)c(N2C(=O)CS/C2=N\C(=O)NCOc2ccc(-c3ncn(-c4ccc(OC(F)(F)F)cc4)n3)cc2)c1 [Compound F29, (Z)-1-(3-(2-Fluoro-5-methylphenyl)-4-oxothiazolidin-2-ylidene)-3-((4-(1-(4-(trifluoromethoxy)phenyl)-1H-1,2,4-triazol-3-yl)phenoxy)methyl)urea] | 50 to 100 | 50 to 100
COC(=O)c1ccc(N2C(=O)CS/C2=N\C(=O)NCOc2ccc(-c3ncn(-c4ccc(OC(F)(F)F)cc4)n3)cc2)c(C)c1 [Compound F26, Methyl (Z)-3-methyl-4-(4-oxo-2-((((4-(1-(4-(trifluoromethoxy)phenyl)-1H-1,2,4-triazol-3-yl)phenoxy)methyl)carbamoyl)imino)thiazolidin-3-yl)benzoate] | 50 to 100 | 0
Cc1ccc(C(C)C)c(N2C(=O)CS/C2=N\C(=O)NCOc2ccc(-c3ncn(-c4ccc(OC(F)(F)F)cc4)n3)cc2)c1 [Compound F1, (Z)-1-(3-(2-isopropyl-5-methylphenyl)-4-oxothiazolidin-2-ylidene)-3-((4-(1-(4-(trifluoromethoxy)phenyl)-1H-1,2,4-triazol-3-yl)phenoxy)methyl)urea] | 50 to 100 | 50 to 100
Cc1ccc(C(C)C)c(N2C(=O)CS/C2=N\C(=O)NC(C)Oc2ccc(-c3ncn(-c4ccc(OC(F)(F)F)cc4)n3)cc2)c1 (stereo not drawn) [Compound F24, (Z)-1-(3-(2-Isopropyl-5-methylphenyl)-4-oxothiazolidin-2-ylidene)-3-(1-(4-(1-(4-(trifluoromethoxy)phenyl)-1H-1,2,4-triazol-3-yl)phenoxy)ethyl)urea] | 50 to 100 | 50 to 100
CCOc1ccccc1N1C(=O)CS/C1=N\C(=O)NCOc1ccc(-c2ncn(-c3ccc(OC(F)(F)F)cc3)n2)cc1 [Compound F25, (Z)-1-(3-(2-Ethoxyphenyl)-4-oxothiazolidin-2-ylidene)-3-((4-(1-(4-(trifluoromethoxy)phenyl)-1H-1,2,4-triazol-3-yl)phenoxy)methyl)urea] | 50 to 100 | 50 to 100
CCCCc1ccccc1N1C(=O)CS/C1=N\C(=O)NCOc1ccc(-c2ncn(-c3ccc(OC(F)(F)F)cc3)n2)cc1 [Compound F28, (Z)-1-(3-(2-Butylphenyl)-4-oxothiazolidin-2-ylidene)-3-((4-(1-(4-(trifluoromethoxy)phenyl)-1H-1,2,4-triazol-3-yl)phenoxy)methyl)urea] | 0 to 50 | 0
